Test system: artificial myocardial structure (cardiac organoid)
Assay: contractile force-based cardiac toxicity assessment using the artificial myocardial structure
Format: cell-based, human
Description: Furthermore, after additionally treating an artificial myocardial structure prepared by coculturing gelatin oil capsules and cardiomyocytes with various drugs, contractile forces of the drug-treated artificial myocardial structure were checked.

| SMILES | beat rates (group treated with 125 nM) | beat rates (group treated with 10 nM) | contractile forces (group treated with 10 nM) |
| --- | --- | --- | --- |
| COc1ccc(CCN(C)CCCC(C#N)(c2ccc(OC)c(OC)c2)C(C)C)cc1OC (stereo not drawn) [verapamil] | slow down and become somewhat irregular | – | – |
| CC(C)NCC(O)c1ccc(O)c(O)c1 (stereo not drawn) [Isopreterenol] | – | accelerated | changed strongly |

Reference: US12325867B2, “Organoid produced using carrier for cell culture, and method for evaluating drug toxicity using same” (Korea Research Institute of Chemical Technology, priority 2018, dated 2025)
